Data set [1] has as its system mouse immortalized bone marrow macrophages B10A.4. In words: MTT in vitro cytotoxicity assay, B10#4. Type of data set: cell-based. The source says:
(§1) One of the parameters used as the basis for colorimetric assays is the metabolic activity of viable cells. For example, a microtiter assay which uses the tetrazolium salt 3-[4,5-Dimethylthiazol-2-yl]-2,5-diphenyltetrazolium bromide; Thiazolyl blue (hereinafter MTT) is now widely used to quantitate cell proliferation and cytotoxicity, for instance, in drug screening programs and in chemosensitivity testing. Because tetrazolium salts are cleaved only by metabolically active cells, these assays detect viable cells exclusively. In the case of the MTT-assay, yellow soluble tetrazolium salt is reduced to colored water-insoluble formazan salt. After it is solubilized, the formazan formed can easily and rapidly be quantified in a conventional ELISA plate reader at 570 nm (maximum absorbance). The quantity of reduced formazan corresponds to number of vital cells in the culture. […]
(§2) The cell suspensions that were prepared and diluted according to the particular cell type and the expected target cell density (2,500-30,000 cells per well based on cell growth characteristics) were added by pipet (80 μl) into 96 well microtiter plates. […] Usually, test compound were evaluated at six 4-fold dilutions. […] The optical density (OD) was measured at 540 nm with the Labsystem iEMS Reader MF (UK). […]

The subject of data set [2] is tumor cell lines. The data set can be described thus: MTT in vitro cytotoxicity, panel of tumor cell lines. The note with it: summary of Table 1. It counts as cell-based.
Text: as §1, §2

The test system of data set [3] is Human T-lymphoblastic leukemia cell line CEM. In words: MTT in vitro cytotoxicity assay, CEM. Type of data set: cell-based. The note with it: 72 hours incubation.
Text: as §1, §2

The test system of data set [4] is B16 melanoma. The data set can be described thus: MTT in vitro cytotoxicity assay, B16. It counts as cell-based, mouse.
Text: as §1, §2

Data set [5] has as its system B16 melanoma. In words: In vivo antitumor activity, subcutaneously inoculated B16 melanoma. The note with it: C57BL-10 mice, 1 mg subcutaneously 4x daily for 7 days.
The subject of data set [6] is P388D1 leukemia. In words: MTT in vitro cytotoxicity assay, P388D1. Type of data set: cell-based, mouse.
Text: as §1, §2

In data set [7] the test system is mouse fibroblasts NIH3T3. The data set can be described thus: MTT in vitro cytotoxicity assay, NIH3T3. It counts as cell-based.
Text: as §1, §2

The conditions of data set [8]: mouse.
Description: in vivo anti-cancer activity assays: water insoluble compounds: 50% DMSO, 10 mM HCl in saline.
Cells were trypsinized, washed in PBS and suspended in PBS with 0.5% bovine serum albumin. 0.5 miilion cells from this suspension was applied subcutaneously to C57BL-10 mice. […] The compounds (1 mg) were applied subcutaneously 4× daily, for 7 days.
Cells were scraped, washed in PBS and suspended in PBS with 0.5% bovine serum albumin. 0.5 million cells from this suspension was applied intraperitoneally to DBA-2 mice. […] The compounds (1 mg) were applied subcutaneously 4× daily, for 7 days.
The subject of data set [9] is L1210 leukemia. In words: MTT in vitro cytotoxicity assay, L1210. It counts as cell-based, mouse.
Text: as §1, §2

In data set [10] the test system is normal human lymphocytes. In words: MTT in vitro cytotoxicity assay, lymphocytes. It counts as cell-based. The conditions noted are these: 72 hours incubation. The source says: (§3) One of the parameters used as the basis for colorimetric assays is the metabolic activity of viable cells. For example, a microtiter assay which uses the tetrazolium salt 3-[4,5-Dimethylthiazol-2-yl]-2,5-diphenyltetrazolium bromide; Thiazolyl blue (hereinafter MTT) is now widely used to quantitate cell proliferation and cytotoxicity, for instance, in drug screening programs and in chemosensitivity testing. Because tetrazolium salts are cleaved only by metabolically active cells, these assays detect viable cells exclusively. In the case of the MTT-assay, yellow soluble tetrazolium salt is reduced to colored water-insoluble formazan salt. After it is solubilized, the formazan formed can easily and rapidly be quantified in a conventional ELISA plate reader at 570 nm (maximum absorbance). The quantity of reduced formazan corresponds to number of vital cells in the culture.
(§4) The cell suspensions that were prepared and diluted according to the particular cell type and the expected target cell density (2,500-30,000 cells per well based on cell growth characteristics) were added by pipet (80 μl) into 96 well microtiter plates. Inoculates were allowed a preincubation period of 24 hours at 37° C. and 5% CO2 for stabilization. […] Usually, test compound were evaluated at six 4-fold dilutions. […] The optical density (OD) was measured at 540 nm with the Labsystem iEMS Reader MF (UK). […]

The test system of data set [11] is P388D1 leukemia. In words: In vivo antitumor activity, intraperitoneally transplanted P388D1 leukemia. The note with it: DBA-2 mice, 1 mg 4x daily for 7 days.
The subject of data set [12] is B16F10 melanoma. The data set can be described thus: MTT in vitro cytotoxicity assay, B16F10. It counts as cell-based, mouse.
Text: as §1, §2

Data set [13] concerns mouse immortalized bone marrow macrophages B2.4. In words: MTT in vitro cytotoxicity assay, B2#4. Type of data set: cell-based. The conditions noted are these: 72 hours incubation.
Text: as §1, §2

The test system of data set [14] is promyelocytic leukemia HL-60. The data set can be described thus: MTT in vitro cytotoxicity assay, HL-60. It counts as cell-based, human.
Text: as §1, §2

In data set [15] the test system is U937. The data set can be described thus: MTT in vitro cytotoxicity assay, U937. Type of data set: cell-based.
Text: as §3, §4

For data set [16], the system named is human breast carcinoma cell line MCF-7. The data set can be described thus: MTT in vitro cytotoxicity assay, MCF7. It counts as cell-based.
Text: as §1, §2

In data set [17] the test system is cervical carcinoma cells HELA. In words: MTT in vitro cytotoxicity assay, HELA. Type of data set: cell-based. The note with it: 72 hours incubation.
Text: as §1, §2

The test system of data set [18] is CEM cells. In words: Apoptosis by phase contrast and electron microscopy. It counts as cell-based, human. The conditions noted are these: 50 μm, 8 hours (FIG. 3).
For data set [19], the system named is CEM cells. In words: Apoptosis and cell cycle analysis by FACS (DNA content). It counts as cell-based, human. The conditions noted are these: 50 μm (FIG. 4), method 70 μM, 3-24 hours. How it is done: Cells (1×10^6/ml) were cultured in 6-well plates with or without 70 μM concentration of test compound at 37° C. and 5% CO2 for 3-24 hours. Following incubation, cells were pelleted, washed in Hank's buffered salt solution and fixed in 96% ethanol overnight at −20° C. Low molecular weight apoptotic DNA was extracted in citrate buffer. RNA was cleaved using RNAse (50 mg/ml).

As for `CC(C)=CCNc1ncnc2nc[nH]c12` [IP, isopentenyladenine], the IC50 – broadly, the point on the concentration scale where inhibition reaches its midpoint – is 267 µM in data set [1] (72 hours incubation); 169 µM in data set [3]; 267 µM in data set [4] (72 hours incubation); 267 µM in data set [6] (72 hours incubation); 267 µM in data set [7] (72 hours incubation); 267 µM in [9] (72 hours incubation). Besides, the IC50 in data set [10] was 267 µM; in data set [12] (72 hours incubation), 267 µM; in data set [13], 267 µM; in data set [14] (72 hours incubation), 157 µM; in [15] (72 hours incubation) it was 267 µM; in data set [16] (72 hours incubation), 267 µM. Moreover, the IC50 in data set [17] is 267 µM. The “toxicity to tumor cells (in words)” value in data set [2] was “did not show significant toxicity”. Also, the “in vivo activity, B16 melanoma model (medium survival time)” value in data set [5] is recorded as “no activity”. Further, the “toxicity in vivo / tissue necrosis at the site of application” value in data set [8] is “no activity and toxicity”. Besides, in data set [11], the “in vivo activity, P388D1 leukemia model (survival)” value is listed as “no activity”.

Consider `Cn1cnc2c(NCc3ccccc3)nc(NCCO)nc21` [OC, 2-(2-hydroxyethylamino)-6-benzylamino-9-methylpurine], for which the IC50 in data set [1] (Mus musculus, B104, 72 hours incubation) is 20.3 µM; in data set [3] (Homo sapiens), 20.7 µM; in data set [4] (Mus musculus, B16, 72 hours incubation), 50.4 µM; in data set [6] (Mus musculus, P388D1, 72 hours incubation) it was 14.5 µM; in [7] (Mus musculus, NIH3T3, 72 hours incubation) it was 267 µM; in data set [9] (Mus musculus, L1210, 72 hours incubation), 23.5 µM. The IC50 was 267 µM in data set [10] (Homo sapiens, Lymphocyte); 20.6 µM in [12] (Mus musculus, B16-F10, 72 hours incubation); 8.1 µM in data set [13] (Mus musculus, Bone marrow macrophage); 28.9 µM in data set [14] (Homo sapiens, HL-60, 72 hours incubation); 63.8 µM in data set [15] (Homo sapiens, U-937, 72 hours incubation); 30.5 µM in data set [16] (Homo sapiens, MCF7, 72 hours incubation). The IC50 in data set [17] (Homo sapiens, HeLa) was determined as 100 µM. Moreover, the “toxicity to tumor cells (in words)” value in [2] was “moderately effective”. Besides, the “in vivo activity, B16 melanoma model (medium survival time)” value in data set [5] is recorded as “significant in vivo activity”. Further, the “in vivo activity, P388D1 leukemia model (survival)” value in data set [11] was “significant in vivo activity”. For the same compound, the “apoptosis by phase contrast / electron microscopy” value in [18] is reported as “apoptosis had occurred”.

With `CCC(CO)Nc1nc(NCc2ccccc2)c2ncn(C(C)C)c2n1` (stereo not drawn) [ROSC, 2-[(1-ethyl-2-hydroxyethyl)amino]-6-benzylamino-9-isopropylpurine], the “apoptosis by phase contrast / electron microscopy” value in data set [18] is given as “apoptosis had occurred”. In [19], the “apoptosis by flow cytometric analysis of DNA content” value is given as “Extensive apoptosis”.

(Values after patent US6703395B2, “Cyclin dependent kinase inhibitor” (priority 1998, dated 2004).)
